We go through two substances from patent publication US9914914B2, “Polymerase capable of producing non-DNA nucleotide polymers” (Medical Research Council, priority 2012, dated 2018).

In general, Kd refers to the concentration at which binding is half-saturated.

[HNA-N] = hexitol nucleic acid (N: the base)

For one series, the target named is T1, CD30 (Homo sapiens, UniProt P28908).
T1 construct: selections were carried out against the extracellular domains of both CD30 and L1-CAM expressed as N-terminal Fc chimeras
T1 sequence (P28908 19-385 limits assumed): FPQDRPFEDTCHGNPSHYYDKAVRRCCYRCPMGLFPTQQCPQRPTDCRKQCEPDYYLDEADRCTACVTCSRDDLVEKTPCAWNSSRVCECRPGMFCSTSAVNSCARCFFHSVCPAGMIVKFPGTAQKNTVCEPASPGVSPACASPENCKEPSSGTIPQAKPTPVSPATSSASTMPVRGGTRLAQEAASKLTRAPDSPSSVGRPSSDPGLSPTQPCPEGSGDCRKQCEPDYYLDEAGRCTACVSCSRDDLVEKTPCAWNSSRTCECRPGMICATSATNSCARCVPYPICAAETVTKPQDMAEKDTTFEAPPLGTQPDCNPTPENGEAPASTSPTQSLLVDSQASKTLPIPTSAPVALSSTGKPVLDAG
The series can be described thus: Fluorescence polarisation affinity of txNA aptamers. The class given is binding. The method, then: In this example, selections were carried out against the extracellular domains of both CD30 and L1-CAM expressed as N-terminal Fc chimeras. Briefly, for each round libraries were annealed in 1×HBSSTT (Hanks' Balanced Salt Solution with 5 mM each TRIS pH 7.4 and 8.3 and 0.05% Tween-20) for 5 min 85° C. and cooled to 4° C. at 0.1° C./sec, exposed to either protein AG or streptavidin-coated paramagnetic beads (see below), filtered to remove the beads and then added to recombinant protein in 1×HBSST. These mixtures were incubated at room temperature on a rotator to allow aptamers to bind to the recombinant proteins in solution and binders were recovered via protein AG or streptavidin-coated paramagnetic beds. Rounds 1, 2 and 5 were carried out using native protein and Protein AG Magnetic Beads (Pierce). All other rounds were carried out using protein biotinylated with NHS-LC-LC-biotin (Pierce) and recovered from the binding incubation using NanoLink Streptavidin Magnetic beads (SoluLink). The beads were washed in 1×HBSSTT for 2 h-16 h at room temperature using a Thermo KingFisher and aptamers eluted from the proteins bound to the beads using 30 mM NaOH. Negative selections were carried out against free Fc from round 5 onwards. […]
Aptamers selected against a) CD30 and b) L1-CAM were tested in fluorescence polarisation (FP) and affinities calculated as above (and/or Pinheiro et al (2012)). […]
In general terms: Polarisation of emitted light reports the rotation of a fluorescent probe.

In series [1] the test system is sTAR (HIV trans-activating response RNA motif). The series is described as follows: HNA aptamer affinity by SPR, BLI and ELONA titration. The class given is binding. The settings on record: read-out: dissociation constant (KD). The method, then:
ELONA (Aptamer-ELISA) was carried out as described (56) with minor modifications. For screening and characterization, ssRNA-HNA chimeras were prepared as described above (13.) (using fitcRNAfd (Table S5)) and binding assayed by immunodetection of the FITC-tag on the bound aptamer. […] Bound antibody was detected using a colorimetric substrate as described above (see PAA, 5) […]
For anti-TAR aptamers, 1000RU sTAR was captured (or, as a reference flow cell, 1000RU scrambledTAR-1) before blocking with excess free biotin. Anti-TAR aptamers were injected for 150 s at a series of concentrations (125 nM, 62.5 nM, 31.3 nM, 15.6 nM, 7.8 nM and 3.9 nM) and dissociation monitored for 600 s, in buffer R (20 mM NaOAc, 140 mM KOAc, 3 mM Mg(OAc)2, 0.1% (v/v) Tween20). […]
To obtain optimal fits, SPR data was fitted to double-exponential model using KaleidaGraph (Synergy Software, Pennsylvania, USA) and Prism (GraphPad Software Inc., California, USA) (57). The rate constants of dissociation were measured by fitting dissociation data at time t (Rdissoc) using a double-exponential function: Rdissoc=Rolexp^−(k^off1^t)+Ro2exp^−(k^off2^t)+RI (1) where koff is the dissociation rate constant, Ro is maximum change in resonance for each phase, RI is the bulk resonance change. […]
On the technique in general: In SPR one partner is held on a chip, and binding of the other changes the refractive index at the surface.

Take “CD30_13: txNA aptamer selected against CD30, SEQ ID NO:20 (TAGATGTGGTAGAAGTCGTCATTTGGCGAGAAAGCTCAGTCTCAGG; XNA aptamer, chemistry of this clone not given here)”: the “binding to CD30” value with CD30 is “bind CD30 tightly and with good affinity”.

Turning to “T5-S8-7: anti-TAR HNA aptamer, SEQ ID NO:16 (AGGTAGTGCTGTTCGTTCATCTCAAATCTAGTTCGCTATCCAGTTGGC; all [HNA-N], backbone and methylation of C not given here)”, the equilibrium dissociation constant (Kd) in series [1] was in the range of 28 to 67 nM.
